What all share (test): relative viability (nuclei count vs DMSO), 5 days (fraction); higher = more cells survive
Compound in experiment [1]: Nc1ncn([C@H]2C[C@H](O)[C@@H](CO)O2)c(=O)n1 [Decitabine] + N=C(N)NC(=N)NCCc1ccccc1 [Phenformin] (partner 250 µM)
In a few lines: (§1)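 Lung cancer cell lines in 1536-well plates got either a single drug or a fixed anchor-drug dose together with five library-drug doses (not always all listed) in √10 steps, by pin tool, on the day after seeding. Nuclei were counted after 5 days, and relative viability is the treated-to-vehicle ratio of nuclei counts. Values are medians of duplicate plates.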

Compound in experiment [2]: Nc1ncn([C@H]2C[C@H](O)[C@@H](CO)O2)c(=O)n1 [Decitabine] + O=C(c1cc(Cc2n[nH]c(=O)c3ccccc23)ccc1F)N1CCN(C(=O)C2CC2)CC1 [Olaparib] (partner 8 µM)
In a few lines: as §1

Compound in experiment [3]: O=C(C[C@H]1NCCC[C@@H]1O)Cn1cnc2cc(Br)c(Cl)cc2c1=O (racemic) [Halofuginone] + N=C(N)NC(=N)NCCc1ccccc1 [Phenformin] (partner 250 µM)
In a few lines: as §1

Compound in experiment [4]: O=C(C[C@H]1NCCC[C@@H]1O)Cn1cnc2cc(Br)c(Cl)cc2c1=O (racemic) [Halofuginone] + Nc1ncn([C@H]2C[C@H](O)[C@@H](CO)O2)c(=O)n1 [Decitabine] (partner 2 µM)
In outline: as §1

Consider UMC-11, for which the relative viability in experiment [1] (first compound 0.04 µM) is 0.31; in experiment [1] (first compound 0.1265 µM), 0.32; in experiment [1] (first compound 0.4 µM), 0.308; in experiment [1] (first compound 1.265 µM) it was 0.266; in experiment [1] (first compound 4 µM) it was 0.274; in experiment [2] (first compound 0.04 µM) it was 0.312. The relative viability turned out to be 0.301 in experiment [2] (first compound 0.1265 µM); 0.273 in experiment [2] (first compound 0.4 µM); 0.218 in experiment [2] (first compound 1.265 µM); 0.2 in experiment [2] (first compound 4 µM); 0.345 in experiment [3] (first compound 0.001 µM); 0.343 in experiment [3] (first compound 0.003162 µM). Also, the relative viability in experiment [3] (first compound 0.01 µM) is 0.324; in experiment [3] (first compound 0.03162 µM), 0.316; in experiment [3] (first compound 0.1 µM) it was 0.267; in experiment [4] (first compound 0.001 µM) it was 0.646; in experiment [4] (first compound 0.003162 µM), 0.848; in experiment [4] (first compound 0.01 µM), 0.59. The results for the relative viability in experiment [4] (first compound 0.03162 µM) and in experiment [4] (first compound 0.1 µM) were 0.604 and 0.426, respectively.
